Assay results reported in US20260209152A1, “Substituted Hydroxystilbene Compounds and Derivatives, Synthesis and Uses Thereof” (Kynan Duke IP, LLC, priority 2019, published 2026).
Where “and” joins values, the source holds several entries; their conditions need not be identical. Equal entries are not always repeated. Entries after “also recorded” stand apart in the source; their conditions may differ. Where two headings read alike, the source gives them in different places.

What was measured:
[1] = system: Osteosarcomas HOS_CRL_1543; assay: CellTiter Glo cell viability assay; type: cell-based, human; conditions: for IC50: Homo sapiens, 72 h, 3 Days of treatment, 18 2-fold dilutions 5-0.00003 μM
In short: (§1)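 Cells were seeded at 1.7*10^3 cells/well in quadruplicate and treated with 18 two-fold dilutions from 5 μM (0.000038146–5 μM), or with 1, 2, 5, 10 and 20 μM. Viability was read by CellTiter Glo luminescence on days 1, 3 and 5, and IC50 came from nonlinear regression of RLU against log dose.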

Breast MDA-MB-231 = assay: CellTiter Glo cell viability assay; type: cell-based, human; conditions: for IC50: Homo sapiens
In short: as §1

Tongue SCC-25 = assay: CellTiter Glo cell viability assay; type: cell-based, human; conditions: for IC50: Homo sapiens, SCC-25, 72 h, 3 Days of treatment, 18 2-fold dilutions 5-0.00003 μM
In short: as §1

Rhabomyosarcoma CCL 166 = assay: CellTiter Glo cell viability assay; type: cell-based, human; conditions: for IC50: Homo sapiens, 72 h, 3 Days of treatment, 18 2-fold dilutions 5-0.00003 μM
In short: as §1

Lung A549 = assay: CellTiter Glo cell viability assay; type: cell-based, human; conditions: for IC50: Homo sapiens, A549, 72 h, 3 Days of treatment, 18 2-fold dilutions 5-0.00003 μM
In short: as §1

Lung NCI-H1048 = assay: CellTiter Glo cell viability assay; type: cell-based, human; conditions: for IC50: Homo sapiens, NCI-H1048, 72 h, 3 Days of treatment, 18 2-fold dilutions 5-0.00003 μM
In short: as §1

Liver SNU-475 = assay: CellTiter Glo cell viability assay; type: cell-based, human; conditions: for IC50: Homo sapiens, SNU-475, 72 h, 3 Days of treatment, 18 2-fold dilutions 5-0.00003 μM
In short: as §1

Bladder UMUC-14 = assay: CellTiter Glo cell viability assay; type: cell-based, human; conditions: for IC50: Homo sapiens, UMUC14, 72 h, 3 Days of treatment, 18 2-fold dilutions 5-0.00003 μM
In short: as §1

Osteosarcomas U2OS = assay: CellTiter Glo cell viability assay; type: cell-based, human; conditions: for IC50: Homo sapiens, U2OS, 72 h, 3 Days of treatment, 18 2-fold dilutions 5-0.00003 μM
In short: as §1

Leiomyosarcoma SK-LMS-1 = assay: CellTiter Glo cell viability assay; type: cell-based, human; conditions: for IC50: Homo sapiens, SK-LMS-1, 72 h, 3 Days of treatment, 18 2-fold dilutions 5-0.00003 μM
In short: as §1

Tongue SCC-9 = assay: CellTiter Glo cell viability assay; type: cell-based, human; conditions: for IC50: Homo sapiens, SCC-9, 72 h, 3 Days of treatment, 18 2-fold dilutions 5-0.00003 μM
In short: as §1

Pancreatic HPAC = assay: CellTiter Glo cell viability assay; type: cell-based, human; conditions: for IC50: Homo sapiens, HPAC, 72 h, 3 Days of treatment, 18 2-fold dilutions 5-0.00003 μM
In short: as §1

Kidney SK-NEP-1 = assay: CellTiter Glo cell viability assay; type: cell-based, human; conditions: for IC50: Homo sapiens, SK-NEP-1, 72 h, 3 Days of treatment, 18 2-fold dilutions 5-0.00003 μM
In short: as §1

Liposarcoma 93T449 = assay: CellTiter Glo cell viability assay; type: cell-based, human; conditions: for IC50: Homo sapiens, 72 h, 3 Days of treatment, 18 2-fold dilutions 5-0.00003 μM
In short: as §1

Bladder J82 = assay: CellTiter Glo cell viability assay; type: cell-based, human; conditions: for IC50: Homo sapiens, 72 h, 3 Days of treatment, 18 2-fold dilutions 5-0.00003 μM
In short: as §1

Rhabomyosarcoma Hs 729 = assay: CellTiter Glo cell viability assay; type: cell-based, human; conditions: for IC50: Homo sapiens, 72 h, 3 Days of treatment, 18 2-fold dilutions 5-0.00003 μM
In short: as §1

Rhabomyosarcoma SJCRH30 = assay: CellTiter Glo cell viability assay; type: cell-based, human
In short: as §1

[2] = Concentration of compound 27 in tissues (LC/MS/MS) of B16F10 xenografted mice; type: in vivo
Procedure: (§2) • Observe and assess the effect of oral administration of 27 on animal wellbeing. • Quantify levels of 27 in tissues (plasma, tumor, liver, spleen and brain) to assess the compound bioaccumulation and distribution.
(§3) B16F10 cells (25×10^5 cells/mouse) were injected subcutaneously into the right flank of female BALB/c mice aged 7-8 weeks. Mice (n=10) were divided into 2 groups and given daily oral suspension of 27 (treated group), or vehicle (control group) for 15 days. The treated group was orally given a suspension of 27 at 900 mg/kg. The control group was given the vehicle suspension (SEDDS). Measurements performed on days 0, 9 and 15 only. Tissues (plasma, tumor, liver, spleen and brain) were harvested within 3 hours of final treatment. Biopsies of tumor tissues for histopathology were obtained subsequently.
Concentrations of 27 in different tissues were determined using LC/MS/MS spectrometry.

BALB/c mice = assay: Effect of oral administration on animal wellbeing in B16F10 xenografted mice; type: in vivo; conditions: 900 mg/kg oral daily for 15 days
Procedure: as §2, §3

[3] = MDA-MB-231, 72 h, 3 Days of treatment, 18 2-fold dilutions 5-0.00003 μM, read-out: Average IC50
[4] = MDA-MB-231, 120 h, Day 5 upon drug treatment, 10 dosages 0.0001-20 μM (Compound 8: 18 dosages 0.000038146 to 5 μM), read-out: IC50
[5] = IC50 of 1 [KYN-001] vs 8 [KYN-119], 3 Days
[6] = individual treated mice, 900 mg/kg oral daily for 15 days in SEDDS, harvested within 3 hours of final treatment, LC/MS/MS, 900 mg/kg

| IC50 (Breast MDA-MB-231; [3]) [nM] | IC50 (Breast MDA-MB-231; [4]) [nM] | IC50 (Rhabomyosarcoma CCL 166) [nM] | IC50 (Lung A549) [nM] | IC50 (Lung NCI-H1048) [nM] | IC50 (Liver SNU-475) [nM] | IC50 (Osteosarcomas U2OS) [nM] | IC50 (Leiomyosarcoma SK-LMS-1) [nM] | IC50 (Kidney SK-NEP-1) [nM] | IC50 (Liposarcoma 93T449) [nM] | IC50 (Rhabomyosarcoma Hs 729) [nM] | SMILES | IC50 [1] [nM] | IC50 (Tongue SCC-25) [nM] | IC50 (Bladder UMUC-14) [nM] | IC50 (Tongue SCC-9) [nM] | IC50 (Pancreatic HPAC) [nM] | IC50 (Bladder J82) [nM] | other results |
| --- | --- | --- | --- | --- | --- | --- | --- | --- | --- | --- | --- | --- | --- | --- | --- | --- | --- | --- |
| 32.6 | 57.3 | 96 | 163 | 91.7 | 239 | 325 | 65.9 | 158 | 55.5 | 383 | COc1cc(/C=C/c2cc(O)cc(OC)c2CC=C(C)C)ccc1O [Compound 1, (E)-3-(4-hydroxy-3-methoxystyryl)-5-methoxy-4-(3-methylbut-2-en-1-yl)phenol] | 358 | 744 | 1160 | 181 | 4990 | 184 | IC50 (Breast MDA-MB-231; MDA-MB-231, 72 h, Day 3 upon drug treatment, 10 dosages 0.0001-20 μM, read-out: IC50): 29.3 nM |
| 8.48 | ~0.00253 | 6.05 | 30.9 | 14.5 | 32.4 | 36.8 | 17.5 | 17.8 | 15.1 | 64.9 | CCOc1cc(O)cc(/C=C/c2ccc(O)c(OC)c2)c1CC=C(C)C [Compound 8, (E)-3-Ethoxy-5-(4-hydroxy-3-methoxystyryl)-4-(3-methylbut-2-en-1-yl)phenol] | 32 | 276 | 563 | 75.5 | 1970 | 46.5 | Fold IC50 [1, 5]: 11; Fold IC50 (Breast MDA-MB-231; [5]): 3.8; Fold IC50 (Tongue SCC-25; [5]): 2.7; Fold IC50 (Rhabomyosarcoma CCL 166; [5]): 16; Fold IC50 (Lung A549; [5]): 5.3; Fold IC50 (Lung NCI-H1048; [5]): 6.3; Fold IC50 (Liver SNU-475; [5]): 7.4; Fold IC50 (Bladder UMUC-14; [5]): 2.1; Fold IC50 (Osteosarcomas U2OS; [5]): 8.8; Fold IC50 (Leiomyosarcoma SK-LMS-1; [5]): 3.8; Fold IC50 (Tongue SCC-9; [5]): 2.4; Fold IC50 (Pancreatic HPAC; [5]): 2.5; IC50 (Rhabomyosarcoma SJCRH30; Homo sapiens, 72 h, 3 Days of treatment, 18 2-fold dilutions 5-0.00003 μM): 43.4 nM; Fold IC50 (Rhabomyosarcoma SJCRH30; [5]): 1.9; Fold IC50 (Kidney SK-NEP-1; [5]): 8.9; Fold IC50 (Liposarcoma 93T449; [5]): 3.7; Fold IC50 (Bladder J82; [5]): 4.0; Fold IC50 (Rhabomyosarcoma Hs 729; [5]): 5.9 |
| – | – | – | – | – | – | – | – | – | – | – | COc1cc(/C=C/c2cc(O)cc(OC)c2CC=C(C)C)ccc1NC=O [Compound 27, (E)-N-(4-(5-hydroxy-3-methoxy-2-(3-methylbut-2-en-1-yl)styryl)-2-methoxyphenyl)formamide] | – | – | – | – | – | – | Tissue distribution, in words ([2]; 900 mg/kg oral daily for 15 days, tissues harvested within 3 hours of final treatment): Low plasma level; also recorded: high tendency to accumulate in the brain; Concentration of compound 27 in tissues: Liver [2, 6]: 12.6 μg/mg and 10.2 μg/mg and 1.0 μg/mg and 0.0 μg/mg (2×); Concentration of compound 27 in tissues: Plasma [2, 6]: 0.0 ng/mL (3×) and 8.4 ng/mL and 0.4 ng/mL; Concentration of compound 27 in tissues: Spleen [2, 6]: 2 μg/mg and 0 μg/mg (4×); Concentration of compound 27 in tissues: Tumor [2, 6]: 0 μg/mg (3×) and 11.6 μg/mg; Signs of toxic effect (BALB/c mice): no signs of toxic effect; also recorded: low toxicity when given orally |
